Structures are written as SMILES. Where two headings read alike, the source gives them in different places. Where only a bound is given, the exact number is not on record here.

Assay [1] deals with T1, αvβ3 (vitronectin receptor) (Homo sapiens, UniProt P05106+P06756).
T1 construct: Human placenta or human platelet αvβ3 (0.1-0.3 mg/mL) in buffer T; from tissue; host or cells: human placenta or human platelets
The assay can be described thus: Solid-phase [3H]-SK&F-107260 binding to αvβ3 (inhibition of vitronectin binding). The settings on record: for ratio* (enhanced binding to vitronectin receptor vs fibrinogen receptor = αIIbβ3/αVβ3): selectivity αIIbβ3/αVβ3. The protocol:
Inhibition of Vitronectin Binding
0.1-0.2 μg of αvβ3 was added per well. The plates were incubated overnight at 4° C. […] Following incubation the wells were aspirated completely and washed twice with 0.2 mL buffer A.
This solution is then diluted to the required final compound concentration.
The plates were incubated for 1 hr at room temperature. Following incubation the wells were aspirated completely and washed once with 0.2 mL of ice cold buffer A in a well-to-well fashion.

For assay [2], the target named is GPIIb-IIIa (fibrinogen receptor, αIIbβ3) (Homo sapiens, UniProt P05106+P08514). The assay can be described thus: Competitive binding to GPIIb-IIIa with [3H]-SK&F-107260 (inhibition of RGD-mediated GPIIb-IIIa binding).
Sequence of GPIIb-IIIa (fibrinogen receptor, αIIbβ3) (P08514 32-887 limits assumed): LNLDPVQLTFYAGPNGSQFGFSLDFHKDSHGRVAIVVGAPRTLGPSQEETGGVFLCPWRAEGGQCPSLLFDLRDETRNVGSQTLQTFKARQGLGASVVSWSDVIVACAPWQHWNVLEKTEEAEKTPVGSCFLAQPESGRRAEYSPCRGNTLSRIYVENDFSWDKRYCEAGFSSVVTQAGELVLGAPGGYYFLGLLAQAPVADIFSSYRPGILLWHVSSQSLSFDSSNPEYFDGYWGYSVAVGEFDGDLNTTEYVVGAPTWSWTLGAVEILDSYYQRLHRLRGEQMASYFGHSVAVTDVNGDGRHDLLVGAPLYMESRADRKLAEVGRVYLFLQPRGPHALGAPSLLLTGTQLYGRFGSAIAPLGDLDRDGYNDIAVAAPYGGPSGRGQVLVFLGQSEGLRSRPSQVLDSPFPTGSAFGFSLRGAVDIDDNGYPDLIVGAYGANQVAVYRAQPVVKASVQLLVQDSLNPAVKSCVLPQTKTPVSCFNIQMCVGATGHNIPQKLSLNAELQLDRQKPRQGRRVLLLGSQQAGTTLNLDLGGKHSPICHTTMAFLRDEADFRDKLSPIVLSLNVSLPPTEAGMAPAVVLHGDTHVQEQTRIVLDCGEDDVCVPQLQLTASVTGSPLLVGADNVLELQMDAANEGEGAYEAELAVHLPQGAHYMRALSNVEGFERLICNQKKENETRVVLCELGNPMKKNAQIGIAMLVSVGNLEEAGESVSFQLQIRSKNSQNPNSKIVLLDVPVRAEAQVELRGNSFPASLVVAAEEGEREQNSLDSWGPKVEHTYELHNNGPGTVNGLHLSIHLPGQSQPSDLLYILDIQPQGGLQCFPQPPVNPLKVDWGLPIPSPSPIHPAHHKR
Sequence of GPIIb-IIIa (fibrinogen receptor, αIIbβ3) (P08514 891-1039 partner limits assumed): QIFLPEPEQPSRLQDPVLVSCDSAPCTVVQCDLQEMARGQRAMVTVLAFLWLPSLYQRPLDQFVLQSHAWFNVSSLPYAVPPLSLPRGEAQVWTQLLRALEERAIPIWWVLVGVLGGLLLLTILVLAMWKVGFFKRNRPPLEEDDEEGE
Sequence of GPIIb-IIIa (fibrinogen receptor, αIIbβ3) (P05106 27-788): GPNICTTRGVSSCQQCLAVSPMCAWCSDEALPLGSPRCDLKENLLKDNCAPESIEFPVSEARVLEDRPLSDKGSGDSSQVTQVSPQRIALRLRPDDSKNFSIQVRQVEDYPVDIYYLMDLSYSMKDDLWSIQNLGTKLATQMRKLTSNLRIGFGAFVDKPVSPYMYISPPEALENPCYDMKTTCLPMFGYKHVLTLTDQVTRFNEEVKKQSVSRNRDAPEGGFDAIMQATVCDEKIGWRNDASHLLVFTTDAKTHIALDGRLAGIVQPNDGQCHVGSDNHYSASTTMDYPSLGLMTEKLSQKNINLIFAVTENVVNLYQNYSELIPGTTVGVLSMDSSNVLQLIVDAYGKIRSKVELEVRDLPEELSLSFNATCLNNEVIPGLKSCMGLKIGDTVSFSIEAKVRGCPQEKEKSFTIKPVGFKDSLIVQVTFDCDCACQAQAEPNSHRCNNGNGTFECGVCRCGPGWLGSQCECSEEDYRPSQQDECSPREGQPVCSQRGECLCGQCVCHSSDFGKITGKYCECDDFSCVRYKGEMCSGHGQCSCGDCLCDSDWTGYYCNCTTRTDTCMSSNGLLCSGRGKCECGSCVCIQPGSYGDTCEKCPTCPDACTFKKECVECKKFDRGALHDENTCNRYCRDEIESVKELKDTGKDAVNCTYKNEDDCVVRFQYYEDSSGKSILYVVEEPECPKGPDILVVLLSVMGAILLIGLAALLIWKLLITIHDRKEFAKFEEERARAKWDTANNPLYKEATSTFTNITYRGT
Protocol: Ten units of outdated, washed human platelets (obtained from Red Cross) were lyzed by gentle stirring in 3% octylglucoside, 20 mM Tris-HCl, pH 7.4, 140 mM NaCl, 2 mM CaCl2 at 4° C. for 2 h. The lysate was centrifuged at 100,000 g for 1 h. The supernatant obtained was applied to a 5 mL lentil lectin sepharose 4B column (E.Y. Labs) preequilibrated with 20 mM Tris-HCl, pH 7.4, 100 mM NaCl, 2 mM CaCl2, 1% octylglucoside (buffer A). After 2 h incubation, the column was washed with 50 mL cold buffer A. The lectin-retained GPIIb-IIIa was eluted with buffer A containing 10% dextrose. All procedures were performed at 4° C.
A mixture of phosphatidylserine (70%) and phosphatidylcholine (30%) (Avanti Polar Lipids) were dried to the walls of a glass tube under a stream of nitrogen. […] The mixture was resuspended and sonicated in a bath sonicator for 5 min.
The binding assay was performed in a 96-well filtration plate assembly. (Millipore Corporation, Bedford, Mass.) using 0.22 um hydrophilic durapore membranes. The wells were precoated with 0.2 mL of 10 μg/mL polylysine (Sigma Chemical Co., St. Louis, Mo.) at room temperature for 1 h to block nonspecific binding. Various concentrations of unlabeled benzadiazapines were added to the wells in quadruplicate. […] The mixtures were incubated for 1 h at room temperature. […] Bound radioactivity remaining on the filters was counted in 1.5 mL Ready Solve (Beckman Instruments, Fullerton, Calif.) in a Beckman Liquid Scintillation Counter (Model LS6800), with 40% efficiency. […] All data points are the mean of quadruplicate determinations.
Competition binding data were analyzed by a nonlinear least-squares curve fitting procedure.

T1 sequence (P06756 31-889 limits assumed): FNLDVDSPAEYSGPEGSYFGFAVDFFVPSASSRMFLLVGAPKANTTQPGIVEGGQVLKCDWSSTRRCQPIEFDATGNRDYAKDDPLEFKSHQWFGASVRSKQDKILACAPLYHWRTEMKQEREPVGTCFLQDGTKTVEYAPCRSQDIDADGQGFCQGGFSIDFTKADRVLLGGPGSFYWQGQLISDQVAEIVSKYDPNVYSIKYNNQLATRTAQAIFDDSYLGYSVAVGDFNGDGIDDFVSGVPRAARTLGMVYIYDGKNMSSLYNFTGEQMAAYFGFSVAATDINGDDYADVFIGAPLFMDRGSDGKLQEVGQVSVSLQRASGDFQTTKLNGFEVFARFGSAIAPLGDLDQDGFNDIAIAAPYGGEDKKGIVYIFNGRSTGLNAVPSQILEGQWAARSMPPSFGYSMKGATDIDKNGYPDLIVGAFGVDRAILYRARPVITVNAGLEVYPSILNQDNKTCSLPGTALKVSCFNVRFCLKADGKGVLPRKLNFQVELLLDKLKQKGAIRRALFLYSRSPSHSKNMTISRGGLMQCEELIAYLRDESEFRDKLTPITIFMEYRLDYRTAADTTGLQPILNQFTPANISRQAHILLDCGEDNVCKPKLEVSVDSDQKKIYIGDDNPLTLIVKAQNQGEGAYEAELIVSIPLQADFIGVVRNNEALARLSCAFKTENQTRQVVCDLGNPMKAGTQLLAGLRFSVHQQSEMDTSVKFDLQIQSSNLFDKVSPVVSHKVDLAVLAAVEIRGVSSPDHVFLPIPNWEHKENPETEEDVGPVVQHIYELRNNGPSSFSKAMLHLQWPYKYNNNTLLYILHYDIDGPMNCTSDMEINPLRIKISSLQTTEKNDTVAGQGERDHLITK
T1 sequence (P06756 891-1048 partner limits assumed): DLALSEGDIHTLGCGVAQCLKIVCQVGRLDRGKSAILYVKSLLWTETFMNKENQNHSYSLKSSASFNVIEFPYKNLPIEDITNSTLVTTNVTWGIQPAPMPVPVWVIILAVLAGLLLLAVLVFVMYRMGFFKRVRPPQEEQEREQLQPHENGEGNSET
T1 sequence (P05106 27-788): as the sequence (P05106 27-788) above

`CN(CC(O)c1ccccc1)C(=O)c1ccc2c(c1)CN(C)C(=O)C(CC(=O)O)C2` (racemic) [Example 16, (±)-8-[[[(2-hydroxy-2-phenyl)ethyl]methylamino]carbonyl]-2-methyl-3-oxo-2,3,4,5-tetrahydro-1H-2-benzazepine-4-acetic acid]: the values for the Ki in assay [1] (read-out: αVβ3) and in assay [2] were 9.5 µM and 28 µM, respectively. Moreover, the “ratio* (enhanced binding to vitronectin receptor vs fibrinogen receptor = αIIbβ3/αVβ3)” value (from here on “ratio*”) in assay [1] worked out at 2.9.
As for `CN1Cc2cc(NC(=O)CNc3ccccn3)ccc2CC(CC(=O)O)C1=O` (racemic) [Example 18, (±)-8-[[(2-(2-pyridinylamino)acetyl]amino]-2-methyl-3-oxo-2,3,4,5-tetrahydro-1H-2-benzazepine-4-acetic acid], the values for the Ki in assay [1] (read-out: αVβ3) and in assay [2] were 1.3 µM and 30 µM, respectively. The “ratio*” value in assay [1] is 23.
On to `CN1Cc2cc(NC(=O)c3ccccn3)ccc2CC(CC(=O)O)C1=O` (racemic) [Example 5, (±)-2-methyl-3-oxo-8-[[2-(pyridinyl)carbonyl]amino]-2,3,4,5-tetrahydro-1H-2-benzazepine-4-acetic acid], for which the Ki is 15.3 µM in assay [1] (read-out: αVβ3) and above 50 µM in assay [2]. Also, the “ratio*” value in assay [1] is on record as above 3.
The corresponding values for `CN1Cc2cc(C(=O)N3CCC(N4CCCCC4)CC3)ccc2NC(CC(=O)O)C1=O` (racemic) [Example 11, (±)-4-methyl-3-oxo-7-[1-[4-(1-piperidinyl)piperidinyl]carbonyl]-2,3,4,5-tetrahydro-1H-1,4-benzodiazepine-2-acetic acid] are 1.45 µM, 20.1 µM and 14.
The like results for `CN1Cc2cc(C(=O)N3CCN(Cc4ccccc4)CC3)ccc2NC(CC(=O)O)C1=O` (racemic) [Example 13, (±)-4-methyl-3-oxo-7-[1-[4-(phenylmethyl)piperazinyl]carbonyl]2,3,4,5-tetrahydro-1H-1,4-benzodiazepine-2-acetic acid] were, in that order, 9.5 µM, 15.4 µM and 1.62.
Turning to `Nc1ccc(NC(=O)c2ccc3c(c2)CN(CCc2ccccc2)C(=O)C(CC(=O)O)N3)cn1` (racemic) [Example 3, (±)-7-[[(6-amino-3-pyridinyl)amino]carbonyl]-3-oxo-4-(2-phenylethyl)-2,3,4,5-tetrahydro-1H-1,4-benzodiazepine-2-acetic acid], the Ki was 9.18 µM in assay [1] (read-out: αVβ3) and 110 µM in assay [2]. In addition, the “ratio*” value in assay [1] came out at 12.
The like results for `CN1Cc2cc(NC(=O)[C@@H](N)Cc3ccccc3)ccc2CC(CC(=O)O)C1=O` (mixture of isomers) [Example 15, 8-[[2S-amino-3-phenylpropanoyl]amino]-2-methyl-3-oxo-2,3,4,5-tetrahydro-1H-2-benzazepine-4RS-acetic acid] were, in that order, 3.9 µM, 37.5 µM and 9.6.
In the case of `CN1Cc2cc(C(=O)Nc3cccc(C(N)=O)c3)ccc2NC(CC(=O)O)C1=O` (racemic) [Example 8, (±)-7-[[[3-(aminocarbonyl)phenyl]amino]carbonyl]-4-methyl-3-oxo-2,3,4,5-tetrahydro-1H-1,4-benzodiazepine-2-acetic acid], the Ki is 12.3 µM in assay [1] (read-out: αVβ3) and above 50 µM in assay [2]. In addition, the “ratio*” value in assay [1] is on record as above 4.
The like results for `CN1Cc2cc(NC(=O)CN)ccc2CC(CC(=O)O)C1=O` (racemic) [Example 20, (±)-8-[(2-aminoacetyl)amino]-2-methyl-3-oxo-2,3,4,5-tetrahydro-1h-2-benzazepine-4-acetic acid] were, in that order, 1.55 µM, 45 µM and 29.
The corresponding values for `CN1Cc2cc(NC(=O)CCN)ccc2CC(CC(=O)O)C1=O` (racemic) [Example 21, (+/±)-8-[(3-aminopropanoyl)amino]-2-methyl-3-oxo-2,3,4,5-tetrahydro-1H-2-benzazepine-4-acetic acid] are 0.85 µM, 52 µM and 61.
As for `CN1Cc2cc(C(=O)NCc3cccnc3)ccc2NC(CC(=O)O)C1=O` (racemic) [Example 22, (±)-4-methyl-3-oxo-7-[[[(3-pyridinyl)methyl]amino]carbonyl]-2,3,4,5-tetrahydro-1H-1,4-benzodiazepine-2-acetic acid], the values for the Ki in assay [1] and in assay [2] were 9.02 µM and 27 µM, respectively. The “ratio*” value in assay [1] amounted to 3.
Take `CN1Cc2cc(C(=O)N3CCN(c4ccccc4)CC3)ccc2NC(CC(=O)O)C1=O` (racemic) [Example 9, (±)-4-methyl-3-oxo-7-[1-(4-phenylpiperazinyl)carbonyl]-2,3,4,5-tetrahydro-1H-1,4-benzodiazepine-2-acetic acid]: the Ki in assay [1] (displacement of 5.0 nM [3H]-SK&F-107260 from human placenta or platelet αvβ3, table does not say whether IC50 or Ki, method derives Ki, read-out: αVβ3) is 9.23 µM; in assay [2] it was above 100 µM. For the same compound, the “ratio*” value in assay [1] is reported as above 11.
Take `CN1Cc2cc(NC(=O)OCc3ccccc3)ccc2CC(CC(=O)O)C1=O` (racemic) [Example 6, (±)-8-[(benzyloxycarbonyl)amino]-2-methyl-3-oxo-2,3,4,5-tetrahydro-1H-2-benzazepine-4-acetic acid]: the Ki stood at 7.5 µM in assay [1] (read-out: αVβ3) and 17.5 µM in assay [2]. The “ratio*” value in assay [1] stood at 2.3.
The like results for `CN1Cc2cc(C(=O)N3CCNCC3)ccc2NC(CC(=O)O)C1=O` (racemic) [Example 10, (±)-4-methyl-3-oxo-7-[(1-piperazinyl)carbonyl]-2,3,4,5-tetrahydro-1H-1,4-benzodiazepine-2-acetic acid] were, in that order, 1.1 µM, 2.13 µM and above 1.9.
For the compound `CN(CCO)C(=O)c1ccc2c(c1)CN(C)C(=O)C(CC(=O)O)N2` (racemic) [Example 17, (±)-7-[[[N-(2-hydroxyethyl)-N-methyl]amino]carbonyl]-4-methyl-3-oxo-2,3,4,5-tetrahydro-1H-1,4-benzodiazepine-2-acetic acid], the values for the Ki in assay [1] (read-out: αVβ3) and in assay [2] were 15.2 µM and above 50 µM, respectively. Further, the “ratio*” value in assay [1] was above 3.
For `CN1Cc2cc(C(=O)N3CCN(c4ncccn4)CC3)ccc2NC(CC(=O)O)C1=O` (racemic) [Example 14, (±)-4-methyl-3-oxo-7-[1-[4-(2-pyrmidinyl)piperazinyl]carbonyl]-2,3,4,5-tetrahydro-1H-1,4-benzodiazepine-2-acetic acid], the Ki is 6.2 µM in assay [1] (read-out: αVβ3) and above 50 µM in assay [2]. Further, in assay [1], the “ratio*” value is given as above 8.

The record behind these values is US6458784B1, “Vitronectin receptor antagonists” (priority 1995, dated 2002).
